# Measurements reported in PMC5856786, “A DHODH inhibitor increases p53 synthesis and enhances tumor cell killing by p53 degradation blockage” (Nature Communications, 2018).
# Tests used:
# nucleoli in HCT116 cells = test: Immunofluorescence of nucleolin and p53; assay type: cell-based; settings: Supplementary Fig. 4a
# Method: (§1) Protein extracts were prepared in 1× LDS sample buffer (Invitrogen) with 100 mM DTT and separated and transferred using the Invitrogen western blotting system except in Supplementary Fig. 1c where the BioRad western blotting system was used. HRP-conjugated secondary antibodies were obtained from Dako (#P016102 and #P0211702) or Santa Cruz (#SC-2020). Immunofluorescence was performed by fixing cells in 4% paraformaldehyde freshly made in PBS for 10 min at 37 °C. Following fixation, cells were permeabilized in 0.15% Triton X-100 for 1–2 min at 37 °C followed by staining with the indicated antibodies. Images were taken using Olympus IX-71 microscope controlled by DeltaVision SoftWoRx. Image stacks were deconvolved, quick-projected and saved as tiff images to be processed using Adobe Photoshop. Antibodies to specific antigens are listed in Supplementary Table 8. All original films for blots in Fig. 1 are shown in Supplementary Figs. 9–12.
# (§2) Cells were fixed in 4 % paraformaldehyde made in PBS followed by 10 min at 37 °C, permeabilization in 0.15 % Triton X-100 for 1-2 min at 37 °C, and staining with antibodies against nucleolin and p53. Images were taken using Olympus IX-71 microscope controlled by Delta Vision SoftWorx. Image stacks were deconvolved, quick-projected and saved as tiff images to be processed using Adobe PhotoShop. […]
# (§3) was extracted and quantified. […]
# [1] = tested on: DNA damage response markers in ARN8 cells; test: Western blotting of DNA damage response markers; assay type: cell-based, human
# Method: as §1, with “Image stacks were deconvolved, quick-projected and saved as tiff images to be processed using Adobe Photoshop. Antibodies to specific antigens are listed in Supplementary Table 8. All original films for blots in Fig. 1 are shown in Supplementary Figs. 9–12.” left out
# Protein levels were analyzed by western blotting and relative p53 levels quantified using […]
# for 1 h prior to the addition of hydroxyurea (HU) or vehicle control for a further 3 h and analyzed by western blotting. gapdh was used as loading control. d) ARN8 cells were treated […]
# (Sigma, #N9162) for a further 2 h. Samples were lysed in 2 × LDS buffer (Invitrogen) and levels of P-ATM and ATM determined. α-tubulin was detected for loading control. e) ARN8 […]
# of NCS for a further 2 h. Samples were lysed as in d) and levels of P-Ser15 p53 and γ-H2AX were determined. gapdh was used as loading control. f−g) ARN8 cells were treated with […]
# (Ser 345) and chk1 were detected. […]
# total RNA in ARN8 cells = test: Total RNA quantification; assay type: cell-based, human
# Method: as §2, with “PhotoShop. Antibodies to specific antigens are listed in Supplementary Table 8. b) ARN8” for “PhotoShop.”
# as §3
# protein kinases = test: Radioactive filter-binding assays, panel of 140 kinases (Supplementary Table 2); assay type: biochemical
# Method: Supplementary Table 2. In vitro inhibition (% remaining activity) of protein
# free assays. Screening was performed by the International Centre for Kinase Profiling
# (Dundee, UK) using radioactive ( P-ATP) filter-binding assays.
# (1 picture or pasted object on this page, not shown here)
# [2] = tested on: p53-induced mRNAs in ARN8 cells; test: q-RT-PCR of p53-induced mRNAs and p53 mRNA; assay type: cell-based, human
# Method: Supplementary Figure 1. HZ compounds increase the levels of p53-induced mRNAs. a) p53-null H1299 cells were transfected with the RGCΔ FosLacZ reporter construct and levels of p53-dependent transcription were determined by CPRG assay following a 16 h exposure to HZ00. A vector expressing wild-type p53 was used as a positive control. The average of three […]
# for 1 hour prior to treatment with 2 µM nutlin-3 for an additional 18 hours. Levels of p53-induced mRNAs and p53 mRNA were determined by q-RT-PCR. tbp was used as a control.
# Values correspond to the average of three technical repeats with standard deviation used for error. RNA extraction and q-RT-PCR were performed as previously described - see supplementary information7. c) HCT116 p53 wild-type or p53 deficient cells were treated […]
# supplementary information for cell line description8. d) ARN8 cells treated for 6 hours with HZ00 at indicated doses. Levels of p53 mRNA were determined by q-RT-PCR. […]
# ARN8 xenograft = test: ARN8 subcutaneous xenograft; assay type: in vivo; settings: ARN8 xenograft
# Summary of the method: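 NSG mice (n = 8 per group) received 2 × 10^6 ARN8 cells subcutaneously in the flank in PBS:Matrigel (3:1). Treatment with (R)-HZ05 combined with nutlin-3a, at a previously determined maximum tolerated dose, started at ~50 mm^3 tumors. Volumes were caliper-measured every second day as π(length × width × height)/6.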
# [3] = tested on: p53 levels in S-phase U2OS cells; test: p53-FITC/DNA content flow cytometry; assay type: cell-based; settings: HZ05 1 μM, 72 h
# Method: The upper left panel is a representative dot plot showing the gating strategy for cells expressing high p53 levels (blue: […] DMSO treated). […] A representative histogram of the fluorescence intensity of FITC-p53 in S-phase cells is shown in the lower right panel. Bar graphs show the average of three independent experiments. […] After an additional 48 h, Annexin V and PI staining was analyzed by flow cytometry. […] Inhibition of p53 degradation in the form of an mdm2 antagonist leads to death of cells in S-phase For the detection of p53, cells were treated as indicated and fixed using Fix/Perm buffer solution (eBiosciences). […] Cells were resuspended in FACS buffer (2 mM EDTA, 0.5% BSA) containing 2 μg mL^−1 FxCycle Violet (Thermo Scientific). Stained cells were acquired on LSRII (BD Biosciences) and analyzed using FlowJo software V10.2.
inhibition of protein kinases (protein kinases),SMILES,effect on nucleoli (nucleoli in HCT116 cells),induction of DNA damage response markers [1],total RNA levels (total RNA in ARN8 cells),mRNA of p53 target genes [2],"xenograft tumor growth, combination with nutlin-3a (ARN8 xenograft; (R)-HZ05 75 mg/kg q.d. s.c. + nutlin-3a 50 mg/kg b.i.d. orally, 10 days)","xenograft tumor growth, single agent (ARN8 xenograft; (R)-HZ05 75 mg/kg q.d. s.c. or nutlin-3a 50 mg/kg b.i.d. orally)",p53 levels in S-phase cells [3]
did not detect inhibition,O=C(NC1CCCc2c1cnn2-c1ccccc1F)c1ccccn1 (centres unmarked) [HZ00],nucleoli were disrupted,did not observe any induction,drop in total RNA levels,raised the mRNA of p53 target genes,,,
,O=C(NC1CCCc2c1cnn2-c1ccccc1F)c1onc2c1CCCC2 (centres unmarked) [HZ05],,,,,statistically significant reduction in xenograft growth,ineffective,higher levels of p53 than vehicle treated controls
